Legend:
[1] = system: LNCaP prostate cancer cells; test: MTT cell viability assay, LNCaP; format: cell-based; details: Homo sapiens, 24 hours
Excerpt: Cell lines, cell culture, biochemical reagents, and antibodies. MiaPaCa-2, AsPC-1, and Panc-1 human pancreatic cancer cells, MCF-7 and MDA-MB-231 breast cancer cells, SCC4 and SCC2059 oral cancer cells, PC-3 and LNCaP prostate cancer cells, H157, H460, H1975, PC-9 and H1650 lung cancer cells were obtained from the American Type Culture Collection (ATCC, Manassas, Va.). All these cells were maintained in recommended growth medium (RPMI 1640 or DMEM) supplemented with 10% fetal bovine serum (FBS) (Invitrogen, Carlsbad, Calif., USA) and antibiotics at 37° C. in a humidified incubator containing 5% CO2. For SILAC experiments, PC-9 cells were grown in SILAC DMEM medium (Thermo Fisher) supplemented with 10% dialyzed FBS and 100 μg/mL each of unlabeled L-arginine and L-lysine (light medium) or ^13C/^15N stable isotope-labeled L-arginine and L-lysine (heavy medium). […]
Cell viability assays. Drug effects on cell viability was assessed by 3-(4,5-dimethylthiazol-2-yl)-2,5-diphenyltetrazolium bromide ([…]) assays. […] The medium was then removed from each well and replaced with DMSO to dissolve the reduced MTT dye for subsequent colorimetric measurement of absorbance at 560 nm. Cell viabilities are expressed as percentages of viable cells relative to the corresponding vehicle-treated control group.

[2] = Incubation with free cysteine, mass spectral analysis; format: physicochemical; details: stoichiometric amount of free cysteine in solution
Excerpt: In an effort to develop irreversible kinase inhibitors, we chose the core structures of several published kinase inhibitors to couple with a propiolyl moiety, which could act as an electrophilic warhead to irreversibly modify the cysteine residues of target proteins.

[3] = target: PKM2 (Homo sapiens, UniProt P14618); test: Covalent adduct formation with recombinant PKM2 (anti-compound 1 antibodies, nanoLC-MS/MS site mapping); format: binding; parameters: made in house
Sequence of PKM2 (P14618 whole entry): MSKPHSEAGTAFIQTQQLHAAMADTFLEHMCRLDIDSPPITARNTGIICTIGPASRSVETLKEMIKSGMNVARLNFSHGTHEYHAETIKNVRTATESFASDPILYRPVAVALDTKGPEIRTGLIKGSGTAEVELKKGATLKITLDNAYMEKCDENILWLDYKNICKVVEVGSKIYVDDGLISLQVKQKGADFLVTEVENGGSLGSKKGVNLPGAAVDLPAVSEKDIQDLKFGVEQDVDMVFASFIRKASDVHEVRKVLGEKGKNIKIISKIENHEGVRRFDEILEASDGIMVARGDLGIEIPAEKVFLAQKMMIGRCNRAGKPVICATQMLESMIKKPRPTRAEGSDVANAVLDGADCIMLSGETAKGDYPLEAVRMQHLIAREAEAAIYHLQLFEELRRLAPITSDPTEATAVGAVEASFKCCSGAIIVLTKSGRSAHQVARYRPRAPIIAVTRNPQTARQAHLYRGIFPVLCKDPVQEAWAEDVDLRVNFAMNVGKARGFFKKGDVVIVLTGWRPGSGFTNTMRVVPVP
Experimental: As this cell-based kinase assay could not rule out the involvement of PKM1, we examined the abilities of compound 1 to inhibit the kinase activity of recombinant PKM2 (SAE0021, Sigma-Aldrich) versus recombinant PKM1 (SRP0415, Sigma-Aldrich) using a commercial PKM assay kit. […] In brief, PC-9 cells were exposed to different concentrations of compound 2 in the presence of compound 1 (1 μM) for 1 hour, lysed, and the cell lysates were treated with biotin-azide, followed by streptavidin bead pulldown under the aforementioned conditions. […] The antigen of compound 1 was prepared by coupling this small molecule with cysteine residues of ovalbumin, which was then used for immunization in guinea pigs.
Preparation of anti-compound 1 antiserum. compound 1 was coupled to the cysteine thiolate in ovalbumin (OVA) via the propiolyl moiety under alkaline conditions by using the modifications to a published method. […]
As PKM2 has a total of 10 cysteine residues (NCBI reference sequence: NM_002654), we conducted proteomic analysis to identify which cysteine residues were covalently modified by compound 1. […] In general, the modification site assignment was considered reliable if the b and y ions flanking the implicated site could be detected, with mass shifts corresponding to a compound 1-modified cysteine (+516.1773 Da). […]

IC50 [1]: > 2000 nM
SMILES: C#CC(=O)Nc1ccc(-n2nc(CCC(=O)NC)cc2-c2ccc(-c3ccc(C(F)(F)F)cc3)cc2)cc1 [compound 1, N-(4-(3-(3-(Methylamino)-3-oxopropyl)-5-(4′-(trifluoromethyl)-[1,1′-biphenyl]-4-yl)-1H-pyrazol-1-yl)phenyl)propiolamide]
adduct formation with free cysteine [2]: formation of a covalent 1-cysteine adduct
covalent adduct with recombinant PKM2 (anti-compound 1 antibodies) ([3]; Western blot, 4° C. for 6 hours): antibodies cross reacted with compound 1-treated PKM2
cysteine residues of PKM2 covalently modified ([3]; tryptic digestion, nanoLC-MS/MS): covalently coupled to the two cysteine residues Cys317 and Cys326

From patent publication US11117888B2, “Irreversible inhibitors of pyruvate kinase M2 and the use thereof” (China Medical University, priority 2020, dated 2021)
